Data published in BindingDB's records for patent US20250129067 (Progentos Therapeutics, 2025).

Target: Platelet-derived growth factor receptor alpha (Homo sapiens, UniProt P16234)
Assay: PDGFRα Kinase Assay
Method: The PDGFRα enzyme assays were conducted per the manufacturer's directions (Promega PDGFRα Kinase Enzyme System and ADP Glo Assay Cat #V8011). […] 20 ng of purified PDGFRα protein was added to the test article. […] ADP-Glo was added to halt the kinase reaction and deplete the remaining ATP. Kinase detection reagent, containing luciferase and luciferin, was used to convert the ADP signal into luminescence. Luminescence was measured using a Molecular Devices Spectramax ID5 and compared to a standard curve to determine kinase activity. IC50s were calculated using Prism 9, Graphpad software.

Sequence of Platelet-derived growth factor receptor alpha (P16234 whole entry): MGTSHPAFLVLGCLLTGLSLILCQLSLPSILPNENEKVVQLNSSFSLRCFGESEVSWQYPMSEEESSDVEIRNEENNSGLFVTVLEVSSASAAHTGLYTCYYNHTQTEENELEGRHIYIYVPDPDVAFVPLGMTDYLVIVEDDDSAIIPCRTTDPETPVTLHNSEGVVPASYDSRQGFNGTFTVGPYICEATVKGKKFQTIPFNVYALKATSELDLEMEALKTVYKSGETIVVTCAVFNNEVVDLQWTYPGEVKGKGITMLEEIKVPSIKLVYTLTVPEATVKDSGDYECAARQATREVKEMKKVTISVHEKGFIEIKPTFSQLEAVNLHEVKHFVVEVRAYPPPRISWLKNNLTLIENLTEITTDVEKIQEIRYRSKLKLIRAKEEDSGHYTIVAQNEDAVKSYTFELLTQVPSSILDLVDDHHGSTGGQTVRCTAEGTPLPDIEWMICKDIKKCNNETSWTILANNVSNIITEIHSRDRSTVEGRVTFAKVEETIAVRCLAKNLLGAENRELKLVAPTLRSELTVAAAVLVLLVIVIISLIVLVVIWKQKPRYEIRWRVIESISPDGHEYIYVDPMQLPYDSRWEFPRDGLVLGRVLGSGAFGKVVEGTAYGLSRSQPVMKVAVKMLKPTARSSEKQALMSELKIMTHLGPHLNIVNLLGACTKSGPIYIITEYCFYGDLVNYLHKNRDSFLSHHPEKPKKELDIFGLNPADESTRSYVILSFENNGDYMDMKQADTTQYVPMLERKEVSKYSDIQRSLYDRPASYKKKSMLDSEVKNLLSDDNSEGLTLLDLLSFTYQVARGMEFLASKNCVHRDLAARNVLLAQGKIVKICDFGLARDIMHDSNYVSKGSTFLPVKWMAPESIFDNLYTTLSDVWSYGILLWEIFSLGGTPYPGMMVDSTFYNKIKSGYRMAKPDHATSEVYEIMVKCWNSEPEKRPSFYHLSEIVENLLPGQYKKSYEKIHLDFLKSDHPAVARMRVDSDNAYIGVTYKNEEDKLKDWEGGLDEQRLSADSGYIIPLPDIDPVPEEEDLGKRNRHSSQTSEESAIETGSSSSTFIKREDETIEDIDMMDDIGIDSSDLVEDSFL

IC50	Compound
5.94 µM	Cn1cc(-c2ccn3c(N4CCN(C(=O)OC(C)(C)C)CC4)cnc3n2)cn1 [US20250129067, Compound 87]
0.107 µM	Cn1cc(-c2ccc3c(N4CCN(c5ncc(C(O)Cc6ccccc6)cn5)CC4)cnn3c2)cn1 (stereo not drawn) [US20250129067, Compound 167]
> 10 µM	CN(CCCN(C)c1cnn2cc(-c3cnn(C)c3)ccc12)c1ncc(Cc2ccccc2)cn1
